ChEMBL document CHEMBL4342522 (J Med Chem, 2020)

Columns and labels:
[1] = target: T1, Bromodomain-containing protein 4 (Homo sapiens, UniProt O60885); assay: biochemical; type: cell-based
Description: Inhibition of human N-terminal His6 tagged BRD4 BD1 (57 to 168) residues expressed in Escherichia coli BL21(DE3) cells after 1 hr by TR-FRET assay

[2] = Unbound hepatic clearance in human liver microsomes; type: ADME, Microsome
[3] = Permeability in dog MDCK cells by PAMPA; type: ADME, cell-based, Canis lupus familiaris; details: read-out: permeability
[4] = Unbound hepatic clearance in mouse liver microsomes; type: ADME, Microsome
[5] = target: T1, Bromodomain-containing protein 4; assay: Inhibition of human N-terminal His6 tagged BRD4 BD2 (352 to 457) residues expressed in Escherichia coli BL21(DE3) cells after 1 hr by TR-FRET assay
[6] = Unbound hepatic clearance in rat liver microsomes; type: ADME, Microsome
[7] = tested on: SKM-1; assay: Antiproliferative activity against human SKM1 cells assessed as reduction in cell viability after 5 days by CellTiter-Glo assay; type: functional, cell-based; details: SKM-1, 120 h
[8] = tested on: NCI-H1299; assay: Antiproliferative activity against human H1299 cells assessed as reduction in cell viability after 5 days by CellTiter-Glo assay; type: functional, cell-based; details: NCI-H1299, 120 h

Row | Ki [1] [nM] | CL free [2] [mL/min/kg] | Papp [3] [×10⁻⁶ cm/s] | CL free [4] [mL/min/kg] | Ki [5] [nM] | CL free [6] [mL/min/kg] | IC50 [7] [nM] | IC50 [8] [nM] | SMILES
1 | 90 | 183 | 1.06 | 2330 | 1.1 | 250 | 14 | 1600 | CCNC(=O)c1cc2c(-c3cc(NC(C)=O)ccc3Oc3c(C)cc(F)cc3C)cn(C)c(=O)c2[nH]1
2 | 230 | 800 | 1.13 | 3330 | 0.5 | 333 | 6.2 | 1900 | Cc1cc(F)cc(C)c1Oc1ccc(C(C)(C)O)cc1-c1cn(C)c(=O)c2[nH]c(C(=O)NC3CC3)cc12
3 | 79 | 167 | 6.12 | 917 | 1.3 | 467 | 14 | 810 | CCNC(=O)c1cc2c(-c3cc(S(=O)(=O)CC)ccc3Oc3c(C)cc(F)cc3C)cn(C)c(=O)c2[nH]1
4 | 140 | 450 | 15.9 | 2170 | 1.8 | 633 | 50 | 1300 | CCNC(=O)c1cc2c(-c3cc(S(=O)(=O)CC)ccc3-n3ccc4ccccc43)cn(C)c(=O)c2[nH]1
5 | 2100 | 5330 | 3.81 | 38300 | 25 | 21700 | 150 | 4200 | CCNC(=O)c1cc2c(-c3ccccc3Cc3c(C)cccc3C)cn(C)c(=O)c2[nH]1
6 | 140 | 400 | 0.55 | 550 | 1 | 167 | 13 | 1200 | CNC(=O)c1cc2c(-c3cc(C(C)(C)O)ccc3Oc3c(C)cc(F)cc3C)cn(C)c(=O)c2[nH]1
7 | 300 | 8670 | 1.47 | 1670 | 1.2 | 817 | 6.7 | 2100 | CCNC(=O)c1cc2c(-c3cc(C4(O)CCOCC4)ccc3Oc3c(C)cc(F)cc3C)cn(C)c(=O)c2[nH]1
8 | 8.6 | 76.7 | 2.4 | < 120 | 1.2 | < 68.3 | 10 | 600 | Cn1cc(-c2cc(S(C)(=O)=O)ccc2Oc2ccc(F)cc2F)c2cc(C(N)=O)[nH]c2c1=O
9 | 470 | 75 | 15.2 | 900 | 5.8 | 200 | 28 | 1200 | CCNC(=O)c1cc2c(-c3cc(S(=O)(=O)CC)ccc3Oc3c(C)cccc3C(F)(F)F)cn(C)c(=O)c2[nH]1
10 | 270 | 417 | 1.69 | 2330 | 1.7 | – | 65 | 3000 | CCNC(=O)c1cc2c(-c3cc(CO)ccc3Oc3c(C)cccc3C)cn(C)c(=O)c2[nH]1
11 | 49 | 317 | 0.23 | 2000 | 1.1 | – | 42 | 970 | CCNC(=O)c1cc2c(-c3cc(NS(=O)(=O)CC)ccc3Oc3c(C)cc(F)cc3C)cn(C)c(=O)c2[nH]1
12 | 140 | 91.7 | 10.7 | 550 | 1.2 | 650 | 11 to 12 | 790 | CCNC(=O)c1cc2c(-c3cc(S(C)(=O)=O)ccc3Oc3c(C)cccc3C)cn(C)c(=O)c2[nH]1
13 | 13 | 63.3 | 16 | 288 | 40 | 282 | 56 | 390 | CCN(C)C(=O)c1cc2c(-c3cc(S(C)(=O)=O)ccc3Oc3ccc(F)cc3F)cn(C)c(=O)c2[nH]1
14 | 310 | 2170 | – | 8670 | 1.3 | 1450 | 25 | 1500 | Cc1cc(F)cc(C)c1Oc1ccc(C(C)(C)O)cc1-c1cn(C)c(=O)c2[nH]c(C(=O)NC(C)(C)C)cc12
15 | 220 | 783 | 1.26 | 4330 | 1.1 | 3000 | 14 | 1400 | Cc1cccc(C)c1Oc1ccc(C(C)(C)O)cc1-c1cn(C)c(=O)c2[nH]c(C(=O)NC(C)(C)C)cc12
16 | 6.6 | 50 | 3.18 | < 103 | 0.7 | 188 | 31 | 110 | CCNC(=O)c1cc2c(-c3cc(S(=O)(=O)CC)ccc3Oc3ccc(F)cc3F)cn(C)c(=O)c2[nH]1
17 | 160 | 75 | 15.2 | 900 | 2.1 | 200 | 24 | 880 | CCNC(=O)c1cc2c(-c3cc(S(=O)(=O)CC)ccc3Oc3c(C)cccc3C(F)F)cn(C)c(=O)c2[nH]1
